“And” between values parts separate entries of the source, which are not always exact repeats. Identical values can stand only once. Toxic doses and inconclusive results are not listed.
System: L1210 leukemia ip in BDF1 mice, survival T/C
Assay: NCI In Vivo Anticancer Drug Screen. Data for tumor model L1210 Leukemia (intraperitoneal) in B6D2F1 (BDF1) mice
Details: endpoint: mean survival time, higher = longer survival
Outline: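 Antitumor effect is assessed in tumor-bearing animals. Survival in the compound arm is compared with a vehicle-dosed control arm and expressed as their quotient.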

[1] = dose: 75.0 mg/kg/injection, schedule: Q01DX009 (ip), vehicle: Klucel (hydroxypropylcellulose) (HPC)
[2] = dose: 100.0 mg/kg/injection, schedule: Q01DX009 (ip), vehicle: Klucel (hydroxypropylcellulose) (HPC)
[3] = dose: 100.0 mg/kg/injection, schedule: Q04DX003 (ip), vehicle: saline with Tween-80
[4] = dose: 200.0 mg/kg/injection, schedule: Q01DX009 (ip), vehicle: Klucel (hydroxypropylcellulose) (HPC)
[5] = dose: 200.0 mg/kg/injection, schedule: Q04DX003 (ip), vehicle: saline with Tween-80
[6] = dose: 100.0 mg/kg/injection, schedule: Q01DX009 (ip), vehicle: saline with Tween-80
[7] = dose: 200.0 mg/kg/injection, schedule: Q01DX009 (ip), vehicle: saline with Tween-80
[8] = dose: 100.0 mg/kg/injection, schedule: Q01DX001 (ip), vehicle: saline with Tween-80
[9] = dose: 200.0 mg/kg/injection, schedule: Q01DX001 (ip), vehicle: saline with Tween-80
[10] = dose: 400.0 mg/kg/injection, schedule: Q01DX001 (ip), vehicle: saline with Tween-80
[11] = dose: 400.0 mg/kg/injection, schedule: Q04DX003 (ip), vehicle: saline with Tween-80
[12] = dose: 100.0 mg/kg/injection, schedule: Q04DX003 (ip), vehicle: saline
[13] = dose: 75.0 mg/kg/injection, schedule: Q01DX001 (ip), vehicle: saline
[14] = dose: 150.0 mg/kg/injection, schedule: Q01DX001 (ip), vehicle: saline

CC(=O)NC1CCCCC1CC1CCCCC1 (configuration not stated)
T/C [1]: 103 % of control
T/C (dose: 100.0 mg/kg/injection, schedule: Q04DX003 (ip), vehicle: Klucel (hydroxypropylcellulose) (HPC)): 102 % of control
T/C (dose: 150.0 mg/kg/injection, schedule: Q01DX009 (ip), vehicle: Klucel (hydroxypropylcellulose) (HPC)): 93 % of control
T/C (dose: 200.0 mg/kg/injection, schedule: Q04DX003 (ip), vehicle: Klucel (hydroxypropylcellulose) (HPC)): 98 % of control
T/C (dose: 300.0 mg/kg/injection, schedule: Q01DX009 (ip), vehicle: Klucel (hydroxypropylcellulose) (HPC)): 96 % of control
T/C (dose: 400.0 mg/kg/injection, schedule: Q04DX003 (ip), vehicle: Klucel (hydroxypropylcellulose) (HPC)): 98 % of control

Nc1nc(=S)c2[nH]c(N=Nc3ccc(S(=O)(=O)Nc4ncccn4)cc3)nc2[nH]1
T/C (dose: 19.0 mg/kg/injection, schedule: Q04DX003 (ip), vehicle: Klucel (hydroxypropylcellulose) (HPC)): 164 % of control
T/C (dose: 29.0 mg/kg/injection, schedule: Q04DX003 (ip), vehicle: Klucel (hydroxypropylcellulose) (HPC)): 164 % of control
T/C [2]: 96 % of control
T/C [3]: 185 % of control
T/C [4]: 97 % of control
T/C [5]: 151 % of control

COC(=O)N/N=C/c1ccc(Cl)cc1Cl
T/C (dose: 6.25 mg/kg/injection, schedule: Q01DX009 (ip), vehicle: Klucel (hydroxypropylcellulose) (HPC)): 94 % of control
T/C (dose: 12.5 mg/kg/injection, schedule: Q01DX009 (ip), vehicle: Klucel (hydroxypropylcellulose) (HPC)): 101 % of control
T/C (dose: 25.0 mg/kg/injection, schedule: Q01DX009 (ip), vehicle: Klucel (hydroxypropylcellulose) (HPC)): 94 % of control and 92 % of control

N#CSCc1c(Cl)c(Cl)c(CSC#N)c(Cl)c1Cl
T/C (dose: 75.0 mg/kg/injection, schedule: Q01DX009 (ip), vehicle: saline): 96 % of control
T/C (dose: 150.0 mg/kg/injection, schedule: Q01DX009 (ip), vehicle: saline): 94 % of control
T/C (dose: 300.0 mg/kg/injection, schedule: Q01DX009 (ip), vehicle: saline): 93 % of control

CCN(CC)c1ccc(N=Nc2cc(Cl)ccc2Cl)c(NC(=O)CSC(C)=O)c1
T/C [2]: 110 % of control
T/C [4]: 101 % of control
T/C (dose: 400.0 mg/kg/injection, schedule: Q01DX009 (ip), vehicle: Klucel (hydroxypropylcellulose) (HPC)): 97 % of control

O=[N+]([O-])C1=C(c2ccccc2)C(c2ccccc2)(c2ccccc2)N=N1
T/C (dose: 100.0 mg/kg/injection, schedule: Q01DX001 (ip), vehicle: saline): 100 % of control
T/C (dose: 200.0 mg/kg/injection, schedule: Q01DX001 (ip), vehicle: saline): 90 % of control
T/C (dose: 400.0 mg/kg/injection, schedule: Q01DX001 (ip), vehicle: saline): 88 % of control

O=Cc1cscc1-c1cscc1C=O
T/C (dose: 50.0 mg/kg/injection, schedule: Q01DX009 (ip), vehicle: saline with Tween-80): 91 % of control
T/C [6]: 95 % of control
T/C [7]: 98 % of control

O=C(Nc1cccc2ccccc12)OCc1ccco1
T/C [8]: 96 % of control
T/C [6]: 93 % of control and 96 % of control
T/C (dose: 100.0 mg/kg/injection, schedule: Q04DX002 (ip), vehicle: saline with Tween-80): 96 % of control and 118 % of control
T/C [3]: 105 % of control
T/C [9]: 97 % of control
T/C [7]: 100 % of control and 86 % of control
T/C (dose: 200.0 mg/kg/injection, schedule: Q04DX002 (ip), vehicle: saline with Tween-80): 96 % of control and 91 % of control
T/C [5]: 100 % of control
T/C [10]: 103 % of control
T/C (dose: 400.0 mg/kg/injection, schedule: Q01DX009 (ip), vehicle: saline with Tween-80): 93 % of control and 94 % of control
T/C (dose: 400.0 mg/kg/injection, schedule: Q04DX002 (ip), vehicle: saline with Tween-80): 104 % of control
T/C [11]: 103 % of control

CCN1CC(CCN2CCOCC2)C(c2ccccc2)(c2ccccc2)C1=O (configuration not stated)
T/C (dose: 6.25 mg/kg/injection, schedule: Q01DX009 (ip), vehicle: saline): 111 % of control
T/C (dose: 12.5 mg/kg/injection, schedule: Q01DX009 (ip), vehicle: saline): 108 % of control
T/C (dose: 25.0 mg/kg/injection, schedule: Q01DX009 (ip), vehicle: saline): 101 % of control
T/C (dose: 25.0 mg/kg/injection, schedule: Q04DX003 (ip), vehicle: saline): 87 % of control
T/C (dose: 50.0 mg/kg/injection, schedule: Q01DX009 (ip), vehicle: saline): 111 % of control
T/C (dose: 50.0 mg/kg/injection, schedule: Q04DX003 (ip), vehicle: saline): 95 % of control
T/C (dose: 100.0 mg/kg/injection, schedule: Q01DX009 (ip), vehicle: saline): 101 % of control
T/C [12]: 92 % of control

N#CC(C#N)=Cc1ccnc2ccccc12
T/C (dose: 10.0 mg/kg/injection, schedule: Q01DX009 (ip), vehicle: saline with Tween-80): 101 % of control
T/C (dose: 12.5 mg/kg/injection, schedule: Q04DX003 (ip), vehicle: saline with Tween-80): 101 % of control
T/C (dose: 20.0 mg/kg/injection, schedule: Q01DX009 (ip), vehicle: saline with Tween-80): 101 % of control
T/C (dose: 25.0 mg/kg/injection, schedule: Q04DX003 (ip), vehicle: saline with Tween-80): 104 % of control
T/C (dose: 40.0 mg/kg/injection, schedule: Q01DX009 (ip), vehicle: saline with Tween-80): 101 % of control
T/C (dose: 50.0 mg/kg/injection, schedule: Q04DX003 (ip), vehicle: saline with Tween-80): 95 % of control
T/C [3]: 105 % of control

CCCCOc1ccc(/C=N/NC(=O)CNC(=O)Nc2cccc(C(F)(F)F)c2)cc1
T/C (dose: 100.0 mg/kg/injection, schedule: Q01DX009 (ip), vehicle: gum acacia): 86 % of control
T/C (dose: 200.0 mg/kg/injection, schedule: Q01DX009 (ip), vehicle: gum acacia): 93 % of control
T/C (dose: 400.0 mg/kg/injection, schedule: Q01DX009 (ip), vehicle: gum acacia): 96 % of control

CC(C)(CNC1CCCC1)OC(=O)c1ccccc1
T/C [13]: 97 % of control and 95 % of control
T/C [14]: 107 % of control

CC1CCCC(c2ccccc2)C1 (configuration not stated)
T/C [8]: 97 % of control
T/C [9]: 102 % of control
T/C [10]: 101 % of control

COc1ccc2c3c1OC1C(C)(O)C(O)CC4C(C2)N(C)CCC341 (configuration not stated)
T/C [13]: 98 % of control
T/C [14]: 104 % of control
T/C (dose: 300.0 mg/kg/injection, schedule: Q01DX001 (ip), vehicle: saline): 98 % of control

O=CC1CO1 (configuration not stated)
T/C (dose: 29.0 mg/kg/injection, schedule: Q01DX Z (ip), vehicle: steriod suspending solution): 97 % of control
T/C (dose: 44.0 mg/kg/injection, schedule: Q01DX Z (ip), vehicle: steriod suspending solution): 99 % of control
T/C (dose: 66.0 mg/kg/injection, schedule: Q01DX Z (ip), vehicle: steriod suspending solution): 106 % of control

CC1=C(O)C(=O)C(c2c(C)cc(C)c(Br)c2C)=C(O)C1=O
T/C [1]: 117 % of control

COc1ccc(OC)c2[nH]c(-c3ccc(Cl)cc3)cc12
T/C (dose: 100.0 mg/kg/injection, schedule: Q04DX002 (ip), vehicle: Klucel (hydroxypropylcellulose) (HPC)): 99 % of control
T/C (dose: 200.0 mg/kg/injection, schedule: Q04DX002 (ip), vehicle: Klucel (hydroxypropylcellulose) (HPC)): 102 % of control
T/C (dose: 400.0 mg/kg/injection, schedule: Q04DX002 (ip), vehicle: Klucel (hydroxypropylcellulose) (HPC)): 89 % of control

NC(=O)C1(Nc2ccc(-c3ccc(I)cc3)cc2)CCCC1
T/C (dose: 50.0 mg/kg/injection, schedule: Q01DX001 (ip), vehicle: carboxymethylcellulose (CMC)): 86 % of control
T/C (dose: 100.0 mg/kg/injection, schedule: Q01DX001 (ip), vehicle: carboxymethylcellulose (CMC)): 86 % of control
T/C (dose: 200.0 mg/kg/injection, schedule: Q01DX001 (ip), vehicle: carboxymethylcellulose (CMC)): 86 % of control
T/C (dose: 400.0 mg/kg/injection, schedule: Q01DX001 (ip), vehicle: carboxymethylcellulose (CMC)): 90 % of control

Oc1c(Br)cc(Br)cc1C=Nc1ccccc1.Oc1c(Br)cc(Br)cc1C=Nc1ccccc1.[Co]
T/C [12]: 92 % of control
T/C (dose: 200.0 mg/kg/injection, schedule: Q04DX003 (ip), vehicle: saline): 98 % of control
T/C (dose: 400.0 mg/kg/injection, schedule: Q04DX003 (ip), vehicle: saline): 98 % of control

Cc1ccc([Si](C)Cl)cc1
T/C [3]: 98 % of control
T/C [5]: 94 % of control
T/C [11]: 90 % of control
